Data published in patent US8138218B2, “Growth hormone secretagogues” (Ipsen Pharma S.A.S., priority 2005, dated 2012).

Target: T1, human growth hormone secretagogue receptor-1a (hGHS-R1a) (Homo sapiens, UniProt Q92847)
T1 construct: The full length hGHS-R1a was subcloned into the mammalian expression vector pcDNA 3.1; expressed in transfected cells
Assay: hGHS-R1a binding assay, (125I)ghrelin displacement on CHO-K1 cell membranes
Details: membranes of CHO-K1 cells expressing hGHS-R1a; 0.05 nM (125I)ghrelin; sixty minute incubation at 4° C.
Text: A. Preparation of CHO-K1 cells expressing the human recombinant GHS receptor-1a
The cDNA for human growth hormone secretagogue receptor-1a (hGHS-R1a) was cloned by Polymerase Chain Reaction (PCR) using human brain RNA as a template (Clontech®, Palo Alto, Calif.), gene specific primers flanking the full-length coding sequence of hGHS-R1a, (S: 5′-[…]-3′ and AS: 5′-[…]-3′), and an Advantage 2 PCR Kit® (Clontech®). The PCR product was cloned into the pCR2.1 vector using an Original TA Cloning Kit® (Invitrogen®, Carlsbad, Calif.). The full length hGHS-R1a was subcloned into the mammalian expression vector pcDNA 3.1 (Invitrogen®, Carlsbad, Calif.). The plasmid was transfected into the Chinese hamster ovary cell line, CHO-K1 (American Type Culture Collection®, Rockville, Md.), by calcium phosphate method (Wigler, M et al., Cell, (1977), 11:223). Single cell clones stably expressing the hGHS-R1a were obtained by selecting transfected cells grown in cloning rings in RPMI 1640 media supplemented with 10% fetal bovine serum and 1 mM sodium pyruvate containing 0.8 mg/ml G418 (Gibco®, Grand Island, N.Y.).
B. hGHS-R1a Binding Assay:
Membranes for radioligand binding studies can be and were prepared by homogenization of the foregoing CHO-K1 cells expressing the hGHS-R1a in 20 ml of ice-cold 50 mM Tris-HCl with a Brinkman Polytron® (Westbury, N.Y.) (setting 6, 15 sec). The homogenates were washed twice by centrifugation (39,000 g/10 min) and the final pellets were re-suspended in 50 mM Tris-HCl containing 2.5 mM MgCl2 and 0.1% BSA. For the assay, aliquots (0.4 ml) were incubated with 0.05 nM (^125I)ghrelin (˜2000 Ci/mmol)(Perkin Elmer Life Sciences®, Boston, Mass.) with and without 0.05 ml of unlabeled competing test compounds of the invention. After a sixty minute incubation at 4° C., the bound (^125I)ghrelin was separated from the free by rapid filtration through GF/C filters (Brandel®, Gaithersburg, Md.) which were previously soaked in 0.5% polyethyleneimine/0.1% BSA. The filters were then washed three times with 5-ml aliquots of ice-cold 50 mM Tris-HCl and 0.1% bovine serum albumin and the bound radioactivity trapped on the filters was counted by gamma spectrometry (Wallac LKB®, Gaithersburg, Md.). Specific binding was defined as the total (^125I)ghrelin bound minus that bound in the presence of 1000 nM ghrelin

T1 sequence (Q92847 whole entry): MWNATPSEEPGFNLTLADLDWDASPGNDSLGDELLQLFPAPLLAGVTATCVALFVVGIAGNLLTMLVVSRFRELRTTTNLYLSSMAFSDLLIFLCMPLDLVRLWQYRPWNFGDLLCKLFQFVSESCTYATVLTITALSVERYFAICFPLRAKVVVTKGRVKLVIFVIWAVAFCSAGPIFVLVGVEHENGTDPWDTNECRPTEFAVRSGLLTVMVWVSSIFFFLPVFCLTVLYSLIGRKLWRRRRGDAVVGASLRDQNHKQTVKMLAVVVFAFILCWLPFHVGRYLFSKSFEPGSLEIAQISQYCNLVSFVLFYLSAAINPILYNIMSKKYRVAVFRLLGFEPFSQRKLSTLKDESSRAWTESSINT

| Ki | SMILES |
| --- | --- |
| 15 nM | CC(C)(N)C(=O)N[C@H](Cc1csc2ccccc12)C(=O)N[C@H](Cc1c[nH]c2ccccc12)NC=O [#1, Aib-D-Bal-DgTrp-CHO] |
| 236 nM | CC(C)(N)C(=O)N[C@H](Cc1csc2ccccc12)C(=O)N[C@H](Cc1cccc2ccccc12)NC=O [#2] |
| 92.1 nM | CC(C)(N)C(=O)N[C@H](Cc1csc2ccccc12)C(=O)N[C@H](Cc1csc2ccccc12)NC=O [#4] |
| 279 nM | CC(C)(N)C(=O)N[C@H](Cc1c[nH]c2ccccc12)C(=O)N[C@H](Cc1csc2ccccc12)NC=O [#5] |
| 100 nM | CC(C)(N)C(=O)N[C@H](Cc1cccc2ccccc12)C(=O)N[C@H](Cc1csc2ccccc12)NC=O [#6] |
| 226 nM | CC(C)(N)C(=O)N[C@H](Cc1ccc2ccccc2c1)C(=O)N[C@H](Cc1csc2ccccc12)NC=O [#7] |
| 38.2 nM | CC(=O)N[C@@H](Cc1c[nH]c2ccccc12)NC(=O)[C@@H](Cc1csc2ccccc12)NC(=O)C(C)(C)N [#11, Aib-D-Bal-DgTrp-C(O)CH3] |
| 2.56 nM | CC(=O)N[C@H](Cc1c[nH]c2ccccc12)NC(=O)[C@@H](Cc1csc2ccccc12)NC(=O)C(C)(C)N [#12] |
| 120 nM | O=CN[C@@H](Cc1c[nH]c2ccccc12)NC(=O)[C@@H](Cc1csc2ccccc12)NC(=O)C1CCNCC1 [#18] |
| 133 nM | O=CN[C@@H](Cc1ccc2ccccc2c1)NC(=O)[C@@H](Cc1csc2ccccc12)NC(=O)C1CCNCC1 [#20] |
| 61.5 nM | CCC(=O)N[C@@H](Cc1c[nH]c2ccccc12)NC(=O)[C@@H](Cc1csc2ccccc12)NC(=O)C(C)(C)N [#50] |
| 20.2 nM | CC(C)C(=O)N[C@@H](Cc1c[nH]c2ccccc12)NC(=O)[C@@H](Cc1csc2ccccc12)NC(=O)C(C)(C)N [#51] |
| 65.1 nM | CC(C)(C)C(=O)N[C@@H](Cc1c[nH]c2ccccc12)NC(=O)[C@@H](Cc1csc2ccccc12)NC(=O)C(C)(C)N [#52] |
| 16.8 nM | CC(C)(N)C(=O)N[C@H](Cc1cccc2ccccc12)C(=O)N[C@H](Cc1c[nH]c2ccccc12)NC=O [#65] |
| 93 nM | CC(C)(N)C(=O)N[C@H](Cc1csc2ccccc12)C(=O)N[C@@H](Cc1c[nH]c2ccccc12)OC(=O)C(F)(F)F [#73] |
